Measured values reported in the NIST ThermoML archive (doi:10.1016/j.jct.2009.07.002).

Assay: isobaric coefficient of expansion
Settings: Liquid, DSC with Pressure Shift

CCCCCCCCCCO [decan-1-ol]
isobaric coefficient of expansion
Settings	298.15 K	308.15 K	318.15 K	328.15 K	338.15 K	348.15 K
5000 kPa	0.000809 1/K	0.000822 1/K	0.000837 1/K	0.00085 1/K	0.000869 1/K	0.000895 1/K
10000 kPa	0.000792 1/K	0.0008 1/K	0.000814 1/K	0.000827 1/K	0.000843 1/K	0.000863 1/K
15000 kPa	0.000776 1/K	0.000784 1/K	0.000795 1/K	0.000803 1/K	0.000819 1/K	0.000832 1/K
20000 kPa	0.000755 1/K	0.000764 1/K	0.000775 1/K	0.000781 1/K	0.000799 1/K	0.000812 1/K
25000 kPa	0.000739 1/K	0.000748 1/K	0.000758 1/K	0.000765 1/K	0.000779 1/K	0.000792 1/K
30000 kPa	0.000725 1/K	0.00073 1/K	0.000743 1/K	0.000748 1/K	0.00076 1/K	0.000775 1/K
35000 kPa	0.000715 1/K	0.000719 1/K	0.000726 1/K	0.000732 1/K	0.000745 1/K	0.000755 1/K
40000 kPa	0.000702 1/K	0.000706 1/K	0.000711 1/K	0.000719 1/K	0.000729 1/K	0.000738 1/K
45000 kPa	0.00069 1/K	0.00069 1/K	0.000699 1/K	0.000704 1/K	0.000713 1/K	0.000722 1/K
50000 kPa	0.000679 1/K	0.00068 1/K	0.000688 1/K	0.000691 1/K	0.000701 1/K	0.000708 1/K
55000 kPa	0.000669 1/K	0.000669 1/K	0.000676 1/K	0.000679 1/K	0.000689 1/K	0.000697 1/K
